Assay results: publication PMC4811302, “Human β-defensin 3 contains an oncolytic motif that binds PI(4,5)P2 to mediate tumour cell permeabilisation” (Oncotarget, 2015)
Where no end group is shown, it is not given here.

Legend:
[1] = test system: Primary cells, HUVEC, AHDF and CASMC; assay: Tetrazolium-based cell viability assay, primary cells; set-up: species or system human; conditions: range over HUVEC, 48 h, MTT, estimated, three independent experiments
Procedure: Human epithelial cervical cancer (HeLa), leukemic monocyte lymphoma (U937), prostate cancer (PC3), promyelocytic leukemia (HL-60), leukemic T cell lymphoblast (Jurkat) cells were cultured in RPMI-1640 medium supplemented with 5–10% (v/v) fetal calf serum (FCS), 100 U/mL penicillin and 100 μg/mL streptomycin (Invitrogen, Carlsbad, CA). Human umbilical vein […] cell (HUVEC) cells were cultured in M199 medium (Invitrogen) supplemented with 20% (v/v) FCS, 40 μg/mL gentamicin, 4 μg/mL endothelial cell growth factor, 4 μg/mL L-glutamine and 135 μg/mL heparin, in 0.1% (w/v) gelatin-coated Corning CELLBIND flask (Corning Life Sciences, Acton, MA). […]
Different concentrations of HBD-3 were added to cells seeded in 96-well plates in appropriate complete medium. […] After 48 h, cell viability was determined using 3-(4,5-dimethylthiazol-2-yl)-2,5-diphenyltetrazolium bromide (MTT) (Sigma-Aldrich, MO) for adherent cells (HeLa, PC3, HUVEC, AHDF, CASMC) or 3-(4,5-dimethylthiazol-2-yl)-5-(3-carboxymethoxyphenyl)-2-(4-sulfophenyl)-2H-tetrazolium (MTS) (Promega, Madison, WI) coupled with phenzine methosulfate (PMS) (Promega) for suspension cells (U937, HL-60, Jurkat) prior to absorbance measurement at 570 nm and […], respectively. Absorbance readings of untreated control wells was designated as 100% cell viability.

U937 cells [2] = assay: ATP bioluminescence release assay, U937; assay type: cell-based, human; conditions: HBD-3 titrations, bioluminescence for 30 min, PBS with 0.1% BSA, concentration-dependent
Procedure: (§1) ATP release assay was conducted using an ATP bioluminescence assay kit (Roche Diagnostics, Mannheim, Germany). U937 and HeLa cells were suspended at 1×10^6 cells/mL in PBS containing 0.1% (w/v) BSA, and mixed with luciferase/luciferin reagent at a ratio of 4:5. The mixture was added to HBD-3 samples and the level of ATP release measured immediately as bioluminescence emission signal intensity for 30 min with 30 s intervals.

[3] = test system: plasma membrane PI(4,5)P2 of U937 cells; assay: Anti-PI(4,5)P2 antibody blocking assay; assay type: cell-based, human; conditions: 15 μM defensins 30 min or 10 mM neomycin 3 h; cells fixed, saponin-lysed, FITC-conjugated anti-PI(4,5)P2 IgM, flow cytometry
Procedure: U937 cells at 1×10^6 cells/mL were treated with 10 mM neomycin for 3 h and/or 15 μM defensins for 30 min in serum-free RPMI 1640 medium containing 0.1% BSA, followed by 20 min fixation with 2% (v/w) paraformaldehyde (Sigma-Aldrich), 10 min lysis with 0.5% (w/v) saponin (Sigma-Aldrich), and then 30 min blocking with 3% (w/v) BSA. Three 5-min centrifugal washes with PBS at 500 g were also included between steps. FITC-conjugated mouse anti-PI(4,5)P2 IgM (Echelon Biosciences) or IgM control (GeneTex, Irvine, CA) was subsequently used at 10 μg/mL for 30 min prior to flow cytometry analysis.

tumour lines = assay: Flow cytometry-based PI uptake assay, tumour lines; assay type: cell-based, human; conditions: 50 μM HBD-3 (highest dose tested), 37°C, 30 min
Procedure: (§2) Cells suspended at 1×10^6 cells/mL in serum-free medium containing 0.1% (w/v) bovine serum albumin (BSA) (Sigma-Aldrich) were treated with HBD-3 at 37°C for 30 min. Nucleic acid stain propidium iodide (PI) was then added to a final concentration of 1 μg/mL and cells subjected to flow cytometry analysis using BD FACSCanto II Flow Cytometer and BD FACSDiva Software v6.1.1 (BD Biosciences, San Jose, CA). For each flow cytometry reading, 10,000 cells, gated appropriately based on forward scattering and side scattering, were recorded. The resultant data were processed using FlowJo software (Tree Star, San Carlos, CA) to determine PI-positivity, which reflects the level of membrane permeabilisation. For lipid inhibition assays, 15 μM HBD-3 was pre-incubated with 50 μM synthetic lipids, including L-α-phosphatidic acid (PA), L-α-phosphatidylcholine (PC), L-α-phosphatidylethanolamine (PE), L-α-phosphatidylserine (PS), L-α-phosphatidylinositol-4-phosphate (PI(4)P), L-α-phosphatidylinositol-3,5-bisphosphate (PI(3,5)P2), L-α-phosphatidylinositol-4,5-bisphosphate (PI(4,5)P2) and L-α-phosphatidylinositol-3,4,5-trisphosphate (PI(3,4,5)P)3. All lipids were sourced from Avanti Polar Lipids, Alabaster, AL. […]

HeLa cells = assay: ATP bioluminescence release assay, HeLa; assay type: cell-based, human; conditions: HBD-3 titrations, bioluminescence for 30 min, PBS with 0.1% BSA, concentration-dependent
Procedure: as §1

[4] = Protein-lipid overlay assay, PIP strip; assay type: binding; conditions: 1 μg/mL protein, immunodetection, densitometry
Procedure: Protein-lipid overlay assays using Membrane strip™ or PIP strip™ (Echelon Biosciences, Salt Lake City, UT) were performed using 1 μg/mL proteins as described previously. Lipid binding was immunodetected using a combination of rabbit anti-HBD-3 IgG (50 μg/mL) and horseradish peroxidase-conjugated donkey-anti-rabbit Ig (10 μg/mL) antibodies. Chemiluminescence signal intensity was quantitated by densitometry analysis using ImageJ (National Institutes of Health, Bethesda, MD; http://imagej.nih.gov/ij/).

U937 cells [5] = assay: Flow cytometry-based PI uptake assay, U937; assay type: cell-based, human; conditions: 25 μM HBD-3, 37°C, 30 min, serum-free medium with 0.1% BSA
Procedure: as §2

U937 cells [6] = assay: Neomycin inhibition of membrane permeabilisation (PI uptake); assay type: cell-based, human; conditions: cells pre-treated with 10 mM neomycin, PI uptake by flow cytometry; effect overcome at higher HBD-3 concentrations
Procedure: as §2

Substance: human β-defensin 3 (GIINTLQKYYCRVRGGRCAVLSCLPKEEQIGKCSTRGRKCCRRKK; not fully specified; cysteine pairing not given here; UniProt P81534 23-67, looked up) [HBD-3, human β-defensin 3, cationic antimicrobial peptide, recombinantly expressed in P. pastoris]
- IC50 [1]: 30 to 65 µM
- cytoplasmic ATP release (U937 cells [2]): rapidly released
- blocking of anti-PI(4,5)P2 antibody binding (overall fluorescence intensity vs untreated control) [3]: significant decrease of overall fluorescence intensity
- cells permeabilised (PI-positive) (tumour lines): at least 80%
- cytoplasmic ATP release (HeLa cells): rapidly released
- binding to phosphoinositides/lipids on PIP strip [4]: most strongly, PA and all phosphoinositides
- PI-positive cells (U937 cells [5]): approximately 85%
- susceptibility of neomycin pre-incubated cells to permeabilisation compared to untreated control (U937 cells [6]): significantly less susceptible
